IC50 data for 23 molecules are collected here from patent publication US20240336601A1 (Chulalongkorn University, priority 2020, published 2024).

The target of one test is T1, PD-1/PD-L1 interaction (Homo sapiens, UniProt Q9NZQ7).
T1 construct: expressed in transfected cells
Put plainly: PD-1/PD-L1 blockage cell-based bioassay (Jurkat NFAT luciferase / CHO-PDL1 co-culture). The note with it: Jurkat NFAT cells co-cultured with CHO-PDL1 cells, 6 h, luminescence.

For test [1], the target named is interaction between PD-1 and PD-L1 (Homo sapiens, UniProt Q9NZQ7). Description: PD-1/PD-L1 protein-protein interaction assay (ALPHA). The test is classed as binding. The note with it: 2 nM His-tagged human PD-L1, 0.6 nM PD-1-Fc, AlphaScreen. (In general: In Alpha technology, singlet oxygen from a donor bead excites a nearby acceptor bead.)
Sequence of interaction between PD-1 and PD-L1 (Q9NZQ7 19-238 limits assumed): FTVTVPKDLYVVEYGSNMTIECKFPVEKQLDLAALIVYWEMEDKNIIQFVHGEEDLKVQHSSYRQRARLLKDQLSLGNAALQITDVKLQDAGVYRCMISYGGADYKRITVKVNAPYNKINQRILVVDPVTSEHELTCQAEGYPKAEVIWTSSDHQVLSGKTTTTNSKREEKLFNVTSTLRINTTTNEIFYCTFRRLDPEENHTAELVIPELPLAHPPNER

The term IC50 denotes the concentration that inhibits the measured activity by half. A low value points to inhibition by little substance.

T1 sequence (Q9NZQ7 19-290): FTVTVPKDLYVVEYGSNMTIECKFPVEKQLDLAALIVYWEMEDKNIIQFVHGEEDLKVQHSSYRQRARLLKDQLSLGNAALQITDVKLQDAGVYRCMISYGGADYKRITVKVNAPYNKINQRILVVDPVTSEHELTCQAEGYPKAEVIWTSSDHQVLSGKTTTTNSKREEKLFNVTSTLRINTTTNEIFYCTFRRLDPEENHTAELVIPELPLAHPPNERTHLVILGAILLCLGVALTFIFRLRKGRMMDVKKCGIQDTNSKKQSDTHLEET
Procedure for PD-1/PD-L1 interaction: PD-1/PD-L1 Blockage Cell-Based Bioassay
Jurkat T cells expressing human PD-1 and luciferase gene reporter driven by TCR-mediated NFAT response element (Jurkat NFAT) were co-cultured with CHO-kl cells expressing human PD-L1 and surface-bound TCR activator (CHO-PDL1). […] CHO-PDL1 cells (20,000 cells/well) were seeded overnight. Compounds were added on CHO-PDL1 and incubated for 2 h at 37° C. Jurkat NFAT cells (20,000 cells/well) were diluted in RPMI assay medium (RPMI1640 with 1% FBS) and added into each well. After co-incubation for 6 h at 37° C., luminescence was determined by adding Bio-Glo™ Luciferase reagent (Promega) and measured with a luminescence plate reader. EC50 values were calculated from the four-parameter concentration-response curves.

As to `COc1cc(-n2ncc3c(-c4cccc(-c5ccc(CN6CC(C)(C(N)=O)C6)c(OC)n5)c4Cl)cccc32)cc(OC)c1CN1CC(C)(O)C1` [Example 104, 1-((6-(2-chloro-3-(1-(4-((3-hydroxy-3-methylazetidin-1-yl)methyl)-3,5-dimethoxyphenyl)-1H-indazol-4-yl)phenyl)-2-methoxypyridin-3-yl)methyl)-3-methylazetidine-3-carboxamide], the half-inhibitory concentration (IC50) against PD-1/PD-L1 interaction lay within 201 to 2000 nM; in test [1], 1 to 10 nM.

Regarding `COc1cc(-n2ccc3c(-c4cccc(-c5ccc(CN6CC(C)(C(=O)O)C6)c(OC)n5)c4Cl)cccc32)cc(OC)c1CNC[C@@H]1CCC(=O)N1` [Example 37], the figures for the IC50 (on PD-1/PD-L1 interaction; in test [1]) were 201 to 2000 nM and 1 to 10 nM, respectively.

As to `COc1cc(-n2ccc3c(-c4cccc(-c5ccc(CN6CC(C)(C(=O)O)C6)c(OC)n5)c4Cl)ccnc32)cc(OC)c1CNC[C@@H]1CCC(=O)N1` [Example 70, (S)-1-((6-(2-chloro-3-(1-(3,5-dimethoxy-4-((((5-oxopyrrolidin-2-yl)methyl)amino)methyl)phenyl)-1H-pyrrolo[2,3-b]pyridin-4-yl)phenyl)-2-methoxypyridin-3-yl)methyl)-3-methylazetidine-3-carboxylic acid], the IC50 was greater than 2000 nM at PD-1/PD-L1 interaction and 1 to 10 nM in test [1].

Take `COc1cc(-c2cccc(-c3cccc4c3cnn4-c3cc(OC)c(CN4CC5(CNC(=O)C5)C4)c(OC)c3)c2Cl)cc(F)c1CN(C)C12CCC(C(=O)O)(CC1)CC2` [Example 160, 4-(((2′-chloro-3′-(1-(3,5-dimethoxy-4-((7-oxo-2,6-diazaspiro[3.4]octan-2-yl)methyl)phenyl)-1H-indazol-4-yl)-3-fluoro-5-methoxy-[1,1′-biphenyl]-4-yl)methyl)(methyl)amino)bicyclo[2.2.2]octane-1-carboxylic acid]: the half-inhibitory concentration (IC50) against PD-1/PD-L1 interaction was less than 200 nM; in test [1] it was less than 1 nM.

As for `COc1cc(-n2ccc3c(-c4cccc(-c5ccc(CNC[C@@H]6CCC(=O)N6)c(OC)n5)c4Cl)ccnc32)cc(OC)c1CN1CC(C)(C(=O)NC2CC2)C1` [Example 46], the IC50 against PD-1/PD-L1 interaction was greater than 2000 nM; in test [1], 1 to 10 nM.

On to `COc1cc(-n2ncc3c(-c4cccc(-c5ccc(CN[C@H]6C[C@@H](O)C6)c(OC)n5)c4Cl)cccc32)cc(OC)c1CNCC(C)(C)C(N)=O` [Example 109, 3-((4-(4-(2-chloro-3-(5-(((cis-3-hydroxycyclobutyl)amino)methyl)-6-methoxypyridin-2-yl)phenyl)-1H-indazol-1-yl)-2,6-dimethoxybenzyl)amino)-2,2-dimethylpropanamide], for which the half-inhibitory concentration (IC50) on PD-1/PD-L1 interaction is less than 200 nM; in test [1] it was 1 to 10 nM.

With `COc1cc(-n2ccc3c(-c4cccc(-c5ccc(CN6CC7(C6)CN(C(C)=O)C7)c(OC)n5)c4Cl)cccc32)cc(OC)c1CNC[C@@H]1CCC(=O)N1` [Example 32], the concentration for half-maximal inhibition (IC50) was greater than 2000 nM against PD-1/PD-L1 interaction and 1 to 10 nM in test [1].

With `COc1cc(-n2ncc3c(-c4cccc(-c5ccc(CN[C@H]6C[C@@H](O)C6)c(OC)n5)c4Cl)cccc32)ncc1CN[C@H]1C[C@@H](O)C1` [Example 106, cis-3-(((6-(2-chloro-3-(1-(5-(((cis-3-hydroxycyclobutyl)amino)methyl)-4-methoxypyridin-2-yl)-1H-indazol-4-yl)phenyl)-2-methoxypyridin-3-yl)methyl)amino)cyclobutanol], the 50% inhibitory concentration (IC50) against PD-1/PD-L1 interaction was 201 to 2000 nM; in test [1] it was less than 1 nM.

With `COc1cc(-n2ncc3c(-c4cccc(-c5ccc(CN6CC(C)(O)C6)c(OC)n5)c4Cl)cccc32)cc(OC)c1CNC[C@@H]1CCC(=O)N1` [Example 54], the results for the 50% inhibitory concentration (IC50) (at PD-1/PD-L1 interaction; in test [1]) were greater than 2000 nM and 10 to 100 nM, respectively.

On to `COc1cc(-n2ncc3c(-c4cccc(-c5ccc(CN6CC7(CNC(=O)C7)C6)c(OC)n5)c4Cl)cccc32)cc(OC)c1CN[C@@](C)(CO)C(=O)O` [Example 139, (S)-2-((4-(4-(2-chloro-3-(6-methoxy-5-((7-oxo-2,6-diazaspiro[3.4]octan-2-yl)methyl)pyridin-2-yl)phenyl)-1H-indazol-1-yl)-2,6-dimethoxybenzyl)amino)-3-hydroxy-2-methylpropanoic acid], for which the IC50 against PD-1/PD-L1 interaction is less than 200 nM; in test [1], less than 1 nM.

`COc1cc(-n2ncc3c(-c4cccc(-c5ccc(CN6CC7(CNC(=O)C7)C6)c(OC)n5)c4Cl)cccc32)cc(OC)c1CN[C@H]1C[C@@H](O)C1` [Example 97, 2-((6-(2-chloro-3-(l-(4-(((cis-3-hydroxycyclobutyl)amino)methyl)-3,5-dimethoxyphenyl)-1H-indazol-4-yl)phenyl)-2-methoxypyridin-3-yl)methyl)-2,6-diazaspiro[3.4]octan-7-one]: the IC50 is less than 200 nM against PD-1/PD-L1 interaction and less than 1 nM in test [1].

Regarding `COc1cc(-n2ccc3c(-c4ccc5c(c4)OCCO5)cccc32)cc(OC)c1CNC(C)(CO)C(=O)O` (stereo not shown) [Example 1, 2-((4-(4-(2,3-dihydrobenzo[b][1,4]dioxin-6-yl)-1H-indol-1-yl)-2,6-dimethoxybenzyl)amino)-3-hydroxy-2-methylpropanoic acid], the IC50 at PD-1/PD-L1 interaction was greater than 2000 nM; in test [1], 10 to 100 nM.

Consider `COc1cc(-n2ccc3c(-c4cccc(-c5ccc(CNC[C@H]6C[C@@H](O)C6)c(OC)n5)c4Cl)cccc32)cc(OC)c1CNC[C@@H]1CCC(=O)N1` [Example 82, (S)-5-(((4-(4-(2-chloro-3-(5-((((cis-3-hydroxycyclobutyl)methyl)amino)methyl)-6-methoxypyridin-2-yl)phenyl)-1H-indol-1-yl)-2,6-dimethoxybenzyl)amino)methyl)pyrrolidin-2-one], for which the IC50 is 201 to 2000 nM against PD-1/PD-L1 interaction and 1 to 10 nM in test [1].

On to `COc1cc(-n2ncc3c(-c4cccc(-c5nc6cc(CN(C)C78CCC(C(=O)O)(CC7)CC8)cc(C#N)c6o5)c4C)cccc32)cc(OC)c1CN1CC[C@@H](O)C1` [Example 157, (R)-4-(((7-cyano-2-(3-(1-(4-((3-hydroxypyrrolidin-1-yl)methyl)-3,5-dimethoxyphenyl)-1H-indazol-4-yl)-2-methylphenyl)benzo[d]oxazol-5-yl)methyl)(methyl)amino)bicyclo[2.2.2]octane-1-carboxylic acid], for which the half-maximal inhibitory concentration (IC50) against PD-1/PD-L1 interaction was less than 200 nM; in test [1], less than 1 nM.

Consider `COc1cc(-n2ccc3c(-c4cccc(-c5ccc(CNC[C@@H]6CCC(=O)N6)c(OC)n5)c4Cl)cccc32)cc(OC)c1CN1CC[C@@H](NC(C)=O)C1` [Example 38], for which the results for the IC50 (on PD-1/PD-L1 interaction; in test [1]) were greater than 2000 nM and 10 to 100 nM, respectively.

On to `COc1cc(-n2ccc3c(-c4cccc(-c5ccc(CN6CC(C)(O)C6)c(OC)n5)c4Cl)cccc32)cc(OC)c1CNC[C@@H]1CCC(=O)N1` [Example 35], for which the IC50 against PD-1/PD-L1 interaction lay in the range of 201 to 2000 nM; in test [1], 1 to 10 nM.

`COc1cc(-n2ncc3c(-c4cccc(-c5ccc(CN[C@H]6C[C@@H](O)C6)c(OC)n5)c4Cl)cccc32)cc(OC)c1CN1CC(C)(O)C1` [Example 102, 1-(4-(4-(2-chloro-3-(5-(((cis-3-hydroxycyclobutyl)amino)methyl)-6-methoxypyridin-2-yl)phenyl)-1H-indazol-1-yl)-2,6-dimethoxybenzyl)-3-methylazetidin-3-ol]: the IC50 is less than 200 nM against PD-1/PD-L1 interaction and 1 to 10 nM in test [1].

Turning to `COc1cc(-n2ccc3c(-c4cccc(-c5ccc(CNC[C@@H]6CCC(=O)N6)c(OC)n5)c4Cl)cccc32)cc(OC)c1CNCC(C)(C)C(N)=O` [Example 39], the IC50 is 201 to 2000 nM against PD-1/PD-L1 interaction and less than 1 nM in test [1].

In the case of `COc1cc(-n2ncc3c(-c4cccc(-c5ccc(CN6CC7(CNC(=O)C7)C6)c(OC)n5)c4Cl)cccc32)cc(OC)c1CN1CC(C(C)(C)O)C1` [Example 137, 2-((6-(2-chloro-3-(1-(4-((3-(2-hydroxypropan-2-yl)azetidin-1-yl)methyl)-3,5-dimethoxyphenyl)-1H-indazol-4-yl)phenyl)-2-methoxypyridin-3-yl)methyl)-2,6-diazaspiro[3.4]octan-7-one], the concentration for half-maximal inhibition (IC50) against PD-1/PD-L1 interaction is 201 to 2000 nM; in test [1], less than 1 nM.

For `COc1cc(-n2ncc3c(-c4cccc(-c5ccc(CN6CC7(CNC(=O)C7)C6)c(OC)n5)c4Cl)cccc32)cc(OC)c1CNC[C@H]1C[C@@H](O)C1` [Example 91, 2-((6-(2-chloro-3-(1-(4-(((((cis)-3-hydroxycyclobutyl)methyl)amino)methyl)-3,5-dimethoxyphenyl)-1H-indazol-4-yl)phenyl)-2-methoxypyridin-3-yl)methyl)-2,6-diazaspiro[3.4]octan-7-one], the IC50 at PD-1/PD-L1 interaction lay within 201 to 2000 nM; in test [1], 1 to 10 nM.

On to `COc1cc(-n2ncc3c(-c4cccc(-c5ccc(CN6CC7(CNC(=O)C7)C6)c(OC)n5)c4Cl)cccc32)cc(OC)c1CNCC(C)(C)C(N)=O` [Example 107, 3-((4-(4-(2-chloro-3-(6-methoxy-5-((7-oxo-2,6-diazaspiro[3.4]octan-2-yl)methyl)pyridin-2-yl)phenyl)-1H-indazol-1-yl)-2,6-dimethoxybenzyl)amino)-2,2-dimethylpropanamide], for which the 50% inhibitory concentration (IC50) against PD-1/PD-L1 interaction is less than 200 nM; in test [1] it was less than 1 nM.

Take `COc1cc(-n2ncc3c(-c4cccc(-c5ccc(CN[C@H]6C[C@@H](O)C6)c(OC)n5)c4Cl)cccc32)ncc1CN[C@@H](CO)C(N)=O` [Example 118, (S)-2-(((6-(4-(2-chloro-3-(5-(((cis-3-hydroxycyclobutyl)amino)methyl)-6-methoxypyridin-2-yl)phenyl)-1H-indazol-1-yl)-4-methoxypyridin-3-yl)methyl)amino)-3-hydroxypropanamide]: the results for the 50% inhibitory concentration (IC50) (at PD-1/PD-L1 interaction; in test [1]) were greater than 2000 nM and less than 1 nM, respectively.

As for `COc1cc(-n2ncc3c(-c4cccc(-c5ccc(CN6CC7(CNC(=O)C7)C6)c(OC)n5)c4Cl)cccc32)cc(OC)c1CN1CC2(CNC(=O)C2)C1` [Example 90, 2-(4-(4-(2-chloro-3-(6-methoxy-5-((7-oxo-2,6-diazaspiro[3.4]octan-2-yl)methyl)pyridin-2-yl)phenyl)-1H-indazol-1-yl)-2,6-dimethoxybenzyl)-2,6-diazaspiro[3.4]octan-7-one], the results for the half-maximal inhibitory concentration (IC50) (on PD-1/PD-L1 interaction; in test [1]) were 201 to 2000 nM and 1 to 10 nM, respectively.
